From US11384060B2, “Amide compounds and use thereof” (ALPHALA CO., LTD., priority 2017, dated 2022)
pIC50: −log10 of the molar value. Read-outs that look alike come from different tables or passages of the source.

Assays:
[1] = target: T1, glucagon receptor (GCGR) overexpressed CHO-K1 cells or human primary hepatocytes (Homo sapiens, UniProt P47871); assay: Glucagon cAMP inhibition assay (Cisbio cAMP Dynamic 2 HTRF); type: cell-based
T1 construct: expressed in transfected cells; host or cells: GCGR overexpressed CHO-K1 cells or human primary hepatocytes (endogenous receptor)
Outline: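 HTRF read-out of glucagon-induced cAMP, with IC50 from non-linear regression. Cells (GCGR CHO-K1 or human primary hepatocytes) in HBSS/0.1% BSA/800 nM IBMX took compound dilutions for 30 min (final DMSO 1%), then EC50-level glucagon for 30 min at room temperature, then a 60 min lysis/detection step.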

[2] = target: T2, glucagon receptor (GCGR) (Homo sapiens, UniProt P47871); assay: I125-glucagon binding assay (competition, GCGR membrane fractions); conditions: for IC50: uM
T2 construct: expressed in transfected cells; host or cells: CHO-K1 cells overexpressing GCGR (membrane fractions)
Outline: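 Competition of 0.0625 nM (final) I^125-glucagon for 30 min at 25° C, after 5 min compound preincubation, using 7.5 μg/well GCGR-overexpressing CHO-K1 membranes in 50 mM Tris pH 7.4, 0.5% BSA. Filtration onto PEI-coated GF/B, micro-beta counting, and non-linear regression gave IC50.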

T1 sequence (P47871 26-477): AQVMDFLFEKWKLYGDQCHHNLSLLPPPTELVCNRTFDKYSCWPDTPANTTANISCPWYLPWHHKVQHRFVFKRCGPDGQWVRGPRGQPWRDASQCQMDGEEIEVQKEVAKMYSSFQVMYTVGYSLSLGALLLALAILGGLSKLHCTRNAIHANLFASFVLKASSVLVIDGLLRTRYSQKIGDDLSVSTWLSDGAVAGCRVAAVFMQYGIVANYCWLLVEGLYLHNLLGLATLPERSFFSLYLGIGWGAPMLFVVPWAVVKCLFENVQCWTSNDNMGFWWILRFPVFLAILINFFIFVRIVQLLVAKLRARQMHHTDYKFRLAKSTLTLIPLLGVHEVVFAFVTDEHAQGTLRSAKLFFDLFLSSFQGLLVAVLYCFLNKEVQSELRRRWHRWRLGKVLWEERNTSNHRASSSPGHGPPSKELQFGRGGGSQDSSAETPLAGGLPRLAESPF
T2 sequence (P47871 26-477): as above

SMILES	IC50 cAMP [1] [µM]	pIC50 [2]	IC50 [2] [µM]
CCCC[C@@H](COc1nnc(-c2cc3ccccc3o2)o1)Nc1ccc(C(=O)NCCC(=O)O)cc1 [Compound 22-4, (S)-3-(4-((1-((5-(benzofuran-2-yl)-1,3,4-oxadiazol-2-yl)oxy)hexan-2-yl)amino)benzamido)propanoic Acid]	>30	< 4.52	–
CCCC[C@@H](COc1nnc(-c2ccc(C(F)(F)F)cc2)o1)Nc1ccc(C(=O)NCCC(=O)O)cc1 [Compound 22-5, (S)-3-(4-((1-((5-(4-(trifluoromethyl)phenyl)-1,3,4-oxadiazol-2-yl)oxy)hexan-2-yl)amino)benzamido)propanoic Acid]	>30	< 4.52	–
CCCC[C@@H](COc1nnc(-c2ccc(Cl)cc2Cl)o1)Nc1ccc(C(=O)NCCC(=O)O)cc1 [Compound 22-6, (S)-3-(4-((1-((5-(2,4-dichlorophenyl)-1,3,4-oxadiazol-2-yl)oxy)hexan-2-yl)amino)benzamido)propanoic Acid]	>30	< 4.52	–
CC[C@H](C)[C@@H](COc1nnc(-c2cc3ccccc3o2)o1)Nc1ccc(C(=O)NCCC(=O)O)cc1 [Compound 22-7, 3-(4-(((2S,3 S)-1-((5-(benzofuran-2-yl)-1,3,4-oxadiazol-2-yl)oxy)-3-methylpentan-2-yl)amino)benzamido)propanoic Acid]	>30	< 4.52	–
CC[C@H](C)[C@@H](COc1nnc(-c2ccc(C(F)(F)F)cc2)o1)Nc1ccc(C(=O)NCCC(=O)O)cc1 [Compound 22-10, 3-(4-(((2S,3S)-3-methyl-1-((5-(4-(trifluoromethyl)phenyl)-1,3,4-oxadiazol-2-yl)oxy)pentan-2-yl)amino)benzamido)propanoic Acid]	>30	< 4.52	–
CC[C@H](C)[C@@H](COc1nnc(-c2ccc(Cl)cc2Cl)o1)Nc1ccc(C(=O)NCCC(=O)O)cc1 [Compound 22-11, 3-(4-(((2S,3S)-1-((5-(2,4-dichlorophenyl)-1,3,4-oxadiazol-2-yl)oxy)-3-methylpentan-2-yl)amino)benzamido)propanoic Acid]	>30	< 4.52	–
CC(C)[C@@H](COc1nnc(-c2cc3ccccc3o2)o1)Nc1ccc(C(=O)NCCC(=O)O)cc1 [Compound 22-12, (S)-3-(4-((1-((5-(benzofuran-2-yl)-1,3,4-oxadiazol-2-yl)oxy)-3-methylbutan-2-yl)amino)benzamido)propanoic Acid]	>30	< 4.52	–
CC(C)[C@@H](COc1nnc(-c2ccc(C(F)(F)F)cc2)o1)Nc1ccc(C(=O)NCCC(=O)O)cc1 [Compound 22-13, (S)-3-(4-((3-methyl-1-((5-(4-(trifluoromethyl)phenyl)-1,3,4-oxadiazol-2-yl)oxy)butan-2-yl)amino)benzamido)propanoic Acid]	>30	< 4.52	–
CC(C)[C@@H](COc1nnc(-c2ccc(Cl)cc2Cl)o1)Nc1ccc(C(=O)NCCC(=O)O)cc1 [Compound 22-14, (S)-3-(4-((1-((5-(2,4-dichlorophenyl)-1,3,4-oxadiazol-2-yl)oxy)-3-methylbutan-2-yl)amino)benzamido)propanoic Acid]	>30	< 4.52	–
CC(C)[C@@H](COc1nnc(-c2ccc(OC(F)(F)F)cc2)o1)Nc1ccc(C(=O)NCCC(=O)O)cc1 [Compound 22-15, (S)-3-(4-((3-methyl-1-((5-(4-(trifluoromethoxy)phenyl)-1,3,4-oxadiazol-2-yl)oxy)butan-2-yl)amino)benzamido)propanoic Acid]	>30	< 4.52	–
CC(C)[C@@H](COc1nnc(-c2ccc(C(C)(C)C)cc2)o1)Nc1ccc(C(=O)NCCC(=O)O)cc1 [Compound 22-16, (S)-3-(4-((1-((5-(4-(tert-butyl)phenyl)-1,3,4-oxadiazol-2-yl)oxy)-3-methylbutan-2-yl)amino)benzamido)propanoic Acid]	>30	< 4.52	–
CC(C)[C@@H](COc1nnc(-c2ccc(C(F)(F)F)cc2F)o1)Nc1ccc(C(=O)NCCC(=O)O)cc1 [Compound 22-17]	>30	< 4.52	–
CCCC[C@@H](COc1nnc(-c2ccc(C(C)(C)C)cc2)o1)Nc1ccc(C(=O)NCCC(=O)O)cc1 [Compound 22-18, (S)-3-(4-((1-((5-(4-(tert-butyl)phenyl)-1,3,4-oxadiazol-2-yl)oxy)hexan-2-yl)amino)benzamido)propanoic Acid]	>30	< 4.52	–
CC[C@H](C)[C@@H](COc1nnc(-c2ccc(C(F)(F)F)cc2Cl)o1)Nc1ccc(C(=O)NCCC(=O)O)cc1 [Compound 22-19]	>30	< 4.52	–
CC[C@H](C)[C@@H](COc1nnc(-c2ccc(C(F)(F)F)cc2F)o1)Nc1ccc(C(=O)NCCC(=O)OC)cc1 [Compound 22-20, Methyl 3-(4-(((2S,3S)-1-((5-(2-fluoro-4-(trifluoromethyl)phenyl)-1,3,4-oxadiazol-2-yl)oxy)-3-methylpentan-2-yl)amino)benzamido)propanoate]	>30	< 4.52	–

Continued, values first:

IC50 cAMP [1] [µM]	pIC50 [2]	IC50 [2] [µM]	SMILES
3.6	7.06	–	CC(C)C[C@H](Nc1ccc(C(=O)NCCC(=O)O)cc1)C(=O)Nc1ccc(-c2ccc(Cl)cc2Cl)cc1 [Compound 23-1, (S)-3-(4-((1-((2′,4′-dichloro-[1,1′-biphenyl]-4-yl)amino)-4-methyl-1-oxopentan-2-yl)amino)benzamido)propanoic Acid]
5.2	6.34	–	O=C(O)CCNC(=O)c1ccc(N[C@@H](Cc2ccccc2)C(=O)Nc2ccc(-c3ccc(Cl)cc3Cl)cc2)cc1 [Compound 23-2, (S)-3-(4-((1-((2′,4′-dichloro-[1,1′-biphenyl]-4-yl)amino)-1-oxo-3-phenylpropan-2-yl)amino)benzamido)propanoic Acid]
5.8	6.41	–	Cc1cc(C)c(-c2ccc(NC(=O)[C@H](Cc3ccccc3)Nc3ccc(C(=O)NCCC(=O)O)cc3)cc2)c(C)c1 [Compound 23-3, (S)-3-(4-((1-oxo-3-phenyl-1-((2′,4′,6′-trimethyl-[1,1′-biphenyl]-4-yl)amino)propan-2-yl)amino)benzamido)propanoic Acid]
3.2	6.57	–	CC(C)C[C@H](Nc1ccc(C(=O)NCCC(=O)O)cc1)C(=O)Nc1ccc(-c2ccc(C(F)(F)F)cc2)cc1 [Compound 23-4, (S)-3-(4-((4-methyl-1-oxo-1-((4′-(trifluoromethyl)-[1,1′-biphenyl]-4-yl)amino)pentan-2-yl)amino)benzamido)propanoic Acid]
3.5	7.10	–	CC(C)C[C@H](Nc1ccc(C(=O)NCCC(=O)O)cc1)C(=O)Nc1ccc(-c2cc3ccccc3o2)cc1 [Compound 23-5, (S)-3-(4-((1-((4-(benzofuran-2-yl)phenyl)amino)-4-methyl-1-oxopentan-2-yl)amino)benzamido)propanoic Acid]
0.181	5.60	–	CCOC(=O)CCNC(=O)c1ccc(N[C@@H](CC(C)C)C(=O)Nc2ccc(-c3cc4ccccc4o3)cc2)cc1 [Compound 23-6, Ethyl (S)-3-(4-((1-((4-(benzofuran-2-yl)phenyl)amino)-4-methyl-1-oxopentan-2-yl)amino)benzamido)propanoate]
0.0643	5.37	–	CCOC(=O)CCNC(=O)c1ccc(N[C@@H](Cc2ccccc2)C(=O)Nc2ccc(-c3cc4ccccc4o3)cc2)cc1 [Compound 23-7, Ethyl (S)-3-(4-((1-((4-(benzofuran-2-yl)phenyl)amino)-1-oxo-3-phenylpropan-2-yl)amino)benzamido)propanoate]
2	–	> 10	O=C(O)CCNC(=O)c1ccc(N[C@@H](Cc2ccccc2)C(=O)Nc2ccc(-c3cc4ccccc4o3)cc2)cc1 [Compound 23-8, (S)-3-(4-((1-((4-(benzofuran-2-yl)phenyl)amino)-1-oxo-3-phenylpropan-2-yl)amino)benzamido)propanoic Acid]
2.6	5.71	–	CCOC(=O)CCNC(=O)c1ccc(N[C@@H](Cc2ccc(F)cc2)C(=O)Nc2ccc(-c3cc4ccccc4o3)cc2)cc1 [Compound 23-9, Ethyl (S)-3-(4-((1-((4-(benzofuran-2-yl)phenyl)amino)-3-(4-fluorophenyl)-1-oxopropan-2-yl)amino)benzamido)propanoate]
1.9	7.21	–	O=C(O)CCNC(=O)c1ccc(N[C@@H](Cc2ccc(F)cc2)C(=O)Nc2ccc(-c3cc4ccccc4o3)cc2)cc1 [Compound 23-10, (S)-3-(4-((1-((4-(benzofuran-2-yl)phenyl)amino)-3-(4-fluorophenyl)-1-oxopropan-2-yl)amino)benzamido)propanoic Acid]
6.8	–	> 10	CCOC(=O)CCNC(=O)c1ccc(N[C@@H](CC(C)C)C(=O)Nc2ccc(-c3cc4ccccc4s3)cc2)cc1 [Compound 23-11, Ethyl (S)-3-(4-((1-((4-(benzo[b]thiophen-2-yl)phenyl)amino)-4-methyl-1-oxopentan-2-yl)amino)benzamido)propanoate]
4.1	6.43	–	CC(C)C[C@H](Nc1ccc(C(=O)NCCC(=O)O)cc1)C(=O)Nc1ccc(-c2cc3ccccc3s2)cc1 [Compound 23-12, (S)-3-(4-((1-((4-(benzo[b]thiophen-2-yl)phenyl)amino)-4-methyl-1-oxopentan-2-yl)amino)benzamido)propanoic Acid]
